# From patent US5003055A, “Anthracycline derivatives having inhibitory activity against reverse transcriptase of human immunodeficiency virus” (priority 1987, dated 1991)
# Where a name gives a salt, the structure may show the parent alone. Read-outs that look alike come from different tables or passages of the source.
# Assays:
# [1] = system: mouse lymphocytic leukemia P-388 cells; assay: Cytotoxicity against P-388 cells (proliferation, MTT technique); type: cell-based; conditions: for IC50: Mus musculus, P388, 48 h, read-out: Cytotoxicity against P-388 cells (IC50, μg/ml) (B); for Cytotoxicity against P-388 cells (IC50, μg/ml) (B): 2880 min
# Description: (b) On the other hand, the cytotoxicity was measured in the following manner. The novel anthracycline derivative of this invention was added to 5×10^3 cells of mouse lymphocytic leukemia P-388 in an incubation medium. After stirring, themixture was incubated Forty-eight hours later, the rate (%) of proliferation of the cells was measured by the MTT technique.
# [2] = background statement; cited from earlier work
# [3] = target: HIV reverse transcriptase (Human immunodeficiency virus type 1 group M subtype B, UniProt P04585); assay: biochemical; conditions: for IC50: HIV reverse transcriptase inhibitory activity (IC50, μg/ml) (A), 37° C., 30 minutes, HIV lysate; for Enzyme inhibitory activity/cytotoxicity ratio (A)/(B): ratio of IC50 HIV reverse transcriptase (A) to IC50 P-388 (B)
# Description: (a) After treating a supernatant of a culture of HIV-infected T4-cells (Molt 4/HTLV 1116/H9) with 9.5% polyethylene glycol for 3 hours, the supernatant was centrifuged at 2500 rpm for 30 minutes to obtain a precipitate. This precipitate was lysed with a mixture comprising 33.3% glycerol, […] tris-HCl (pH 7.5), 533 mM KCl, 0.32% Triton X-100 and 3.3 mM dithiothreitol, so as to prepare an HIV lysate (2.5×10^6 PFU/ml) The activity of the reverse transcriptase present in the HIV lysate thus prepared was determined in terms of the up-take rate of [α-^32 P]dATP during the synthesis of DNA, with using rabbit-β-globin mRNA and oligo dT as the template and primer, respectively. Thus, 1 μl of the HIV lysate was added to 9 μl of an enzymatic reaction solution comprising 50 mM tris-HCl (pH 8.3), 70 mM KCl, 10 mM MgCl2, 30 mM mercaptoethanol, 90 nM dNTPs, 3.3 μg/ml oligo dT, 8.3 mU/ml human placenta RNase inhibitor, 5 μg/ml β-globin mRNA, 0.14 mCi/ml [α-^32 P]dATP. After incubating the resultant mixture at 37° C. for 30 minutes, 10% aqueous trichloroacetic acid (TCA) was added to terminate the reaction.
# After completion of the reaction, the whole reaction mixture was placed on a nitrocellulose membrane filter so as to adsorb the resultant DNA into the filter. The filter was then washed with 5% TCA and 20 mM sodium pyrophosphate to remove the unreacted [α-^32 P]dATP therefrom. The amount of the resultant DNA on the nitrocellulose membrane filter was calculated by measuring its radioactivity.
# The novel anthracycline derivatives of this invention were separately added to the enzymatic reaction solution. The above experiment was repeated using the so prepared enzymatic reaction solution containing the anthracycline derivative as a test compound, so that the evaluation was made of IC50 of the test compound inhibitory to the activity of the HIV reverse transcriptase, namely the concentration of the test compound which was 50% inhibitory to the activity of the HIV reverse transcriptase.
SMILES,"IC50 ([1]; P-388, 48 hours, MTT technique) [µg/mL]",toxicity (in words) [2],"Cytotoxicity against P-388 cells (IC50, μg/ml) (B) ([1]; P-388, 48 hours, MTT technique) [µg/mL]",IC50 [3] [µM],Enzyme inhibitory activity/cytotoxicity ratio (A)/(B) [3],IC50 [1] [µg/mL]
"COc1cccc2c1C(=O)c1c(O)c3c(c(O)c1C2=O)C[C@@](O)(C(=O)CO)C[C@@H]3O[C@H]1C[C@H](N)[C@H](O)[C@H](C)O1 [ADM, adriamycin, reference compound]",0.037,high toxicity,–,–,–,–
"COc1cccc2c1C(=O)c1c(O)c3c(c(O)c1C2=O)C[C@@](O)(C(=O)CO)C[C@@H]3O[C@H]1C[C@H](N)[C@H](O)[C@H](C)O1 [ADM.HCl, reference compound]",–,–,0.02,–,–,–
"COCc1ccc(C(=O)OCC(=O)[C@]2(O)Cc3c(O)c4c(c(O)c3[C@@H](O[C@H]3C[C@H](N)[C@H](O)[C@H](C)O3)C2)C(=O)c2c(OC)cccc2C4=O)cc1OC [NOVA-1, 14-O-(3-methoxy-4-methoxymethylbenzoyl)adriamycin]",0.29,–,–,41.6,103,–
"CCCCCCOCc1ccc(C(=O)OCC(=O)[C@]2(O)Cc3c(O)c4c(c(O)c3[C@@H](O[C@H]3C[C@H](N)[C@H](O)[C@H](C)O3)C2)C(=O)c2c(OC)cccc2C4=O)cc1OCCCCCC [NOVA-2, 14-O-(3-n-hexyloxy-4-n-hexyloxymethylbenzoyl)adriamycin]",0.48,–,–,19.7,35,–
"CCCCCCCCCCCOCc1ccc(C(=O)OCC(=O)[C@]2(O)Cc3c(O)c4c(c(O)c3[C@@H](O[C@H]3C[C@H](N)[C@H](O)[C@H](C)O3)C2)C(=O)c2c(OC)cccc2C4=O)cc1OCCCCCCCCCCC [NOVA-3.HCl, 14-O-(3-n-undecyloxy-4-n-undecyloxymethylbenzoyl)adriamycin hydrochloride]",0.49,–,–,18.5,38,–
"CCCCCCCCCCCOc1cc(C(=O)OCC(=O)[C@]2(O)Cc3c(O)c4c(c(O)c3[C@@H](O[C@H]3C[C@H](N)[C@H](O)[C@H](C)O3)C2)C(=O)c2c(OC)cccc2C4=O)ccc1CO [NOVA-4, 14-O-(3-n-undecyloxy-4-hydroxymethylbenzoyl)adriamycin]",0.5,–,–,14.7,25,–
"CCCCCCCCCCCCCCCCCCOCc1ccc(C(=O)OCC(=O)[C@]2(O)Cc3c(O)c4c(c(O)c3[C@@H](O[C@H]3C[C@H](N)[C@H](O)[C@H](C)O3)C2)C(=O)c2c(OC)cccc2C4=O)cc1OCCCCCCCCCCCCCCCCCC [NOVA-5.HCl, 14-O-(3-n-octadecyloxy-4-n-octadecyloxymethylbenzoyl)adriamycin hydrochloride]",3.2,–,–,18.4,6.9,–
"COc1cccc2c1C(=O)c1c(O)c3c(c(O)c1C2=O)C[C@@](O)(C(=O)COC(=O)c1ccc(CO)c(O)c1)C[C@@H]3O[C@H]1C[C@H](N)[C@H](O)[C@H](C)O1 [NOVA-6, 14-O-(3-hydroxy-4-hydroxymethylbenzoyl)adriamycin]",0.15,–,–,79.3,370,–
"COc1cccc2c1C(=O)c1c(O)c3c(c(O)c1C2=O)C[C@@](O)(C(=O)COC(=O)c1ccc2c(c1)OC(C)(C)OC2)C[C@@H]3O[C@H]1C[C@H](N)[C@H](O)[C@H](C)O1 [NOVA-7, 14-O-(0-isopropylidene-3-hydroxy4-hydroxymethylbenzoyl)adriamycin]",–,–,–,31.3,121,0.19
"COc1ccc(C(=O)OCC(=O)[C@]2(O)Cc3c(O)c4c(c(O)c3[C@@H](O[C@H]3C[C@H](N)[C@H](O)[C@H](C)O3)C2)C(=O)c2c(OC)cccc2C4=O)cc1OC [NOVA-8, 14-O-(3,4-dimethoxybenzoyl)-adriamycin]",0.33,–,–,26.8,58,–
"CCCCCCOc1ccc(C(=O)OCC(=O)[C@]2(O)Cc3c(O)c4c(c(O)c3[C@@H](O[C@H]3C[C@H](N)[C@H](O)[C@H](C)O3)C2)C(=O)c2c(OC)cccc2C4=O)cc1OCCCCCC [NOVA-9, 14-O-(3,4-di-n-hexyloxybenzoyl)adriamycin]",2.6,–,–,23.6,7.8,–
CCCCCCOc1ccc(C(=O)OCC(=O)[C@]2(O)Cc3c(O)c4c(c(O)c3[C@@H](O[C@H]3C[C@H](N)[C@H](O)[C@H](C)O3)C2)C(=O)c2c(OC)cccc2C4=O)cc1OCCCCCC [NOVA-9.1/2H2 SO4],–,–,5.2,27.1,4.4,–
CCCCCCOc1ccc(C(=O)OCC(=O)[C@]2(O)Cc3c(O)c4c(c(O)c3[C@@H](O[C@H]3C[C@H](N)[C@H](O)[C@H](C)O3)C2)C(=O)c2c(OC)cccc2C4=O)cc1OCCCCCC [NOVA-9.HCl],–,–,3.1,17.7,4.8,–
CCCCCCCCCCCOc1ccc(C(=O)OCC(=O)[C@]2(O)Cc3c(O)c4c(c(O)c3[C@@H](O[C@H]3C[C@H](N)[C@H](O)[C@H](C)O3)C2)C(=O)c2c(OC)cccc2C4=O)cc1OCCCCCCCCCCC [NOVA-10.HCl],1.8,–,–,16.2,8.9,–
CCCCCCCCCCCCCCCCCCOc1ccc(C(=O)OCC(=O)[C@]2(O)Cc3c(O)c4c(c(O)c3[C@@H](O[C@H]3C[C@H](N)[C@H](O)[C@H](C)O3)C2)C(=O)c2c(OC)cccc2C4=O)cc1OCCCCCCCCCCCCCCCCCC [NOVA-11.HCl],1.9,–,–,84.4,53,–
CCCCC(=O)Oc1ccc(C(=O)OCC(=O)[C@]2(O)Cc3c(O)c4c(c(O)c3[C@@H](O[C@H]3C[C@H](N)[C@H](O)[C@H](C)O3)C2)C(=O)c2c(OC)cccc2C4=O)cc1OC(=O)CCCC [NOVA-12.HCl],0.22,–,–,13,50,–
